In patent US11773108B2, “Indene derivatives useful in treating pain and inflammation” (TARO PHARMACEUTICALS INC., priority 2018, dated 2023):

Test: Metabolism by human liver microsomes
Format: in vitro ADME
Conditions: 10 μM, in the presence of NADPH; for Scoring: % of drug remaining after 60 minutes (PDR60): human liver microsomes 1 mg/mL protein, LC-MS/MS
Experimental: Representative compounds of the invention (i.e., test compounds) and the positive control, 7-ethoxycoumarin, were prepared as stock solutions at 10 mM in DMSO and eventually diluted to 10 μM in the test plate, with an appropriate amount of acetonitrile and tris HCl buffer. Final DMSO and acetonitrile concentrations were […] and 0.5% respectively. NADPH was prepared in tris HCl buffer to a stock of 10 mM. A frozen aliquot of liver microsomes was retrieved from the freezer (−80° C.) and thawed by placing the tube on wet ice. After thawing, the tubes were gently mixed and the required amount, transferred to tris HCl buffer. Test compounds or positive control were pre-incubated, separately, for 10 minutes, with liver microsomes (1 mg/mL protein), at 37° C., in 100 mM Tris HCl at pH 7.5. After preincubation the reaction was started by adding 1 mM NADPH (pre-equilibrated to 30° C.) and the reaction allowed to proceed for 60 minutes. At 60 minutes, a 50 μL aliquot was removed and quenched with 200 uL of acetonitrile containing a mixture of internal standards (Tolbutamide (500 ng/mL) and Telmistartan (500 ng/mL)) and vortexed then centrifuged at 4000 rpm for 10 minutes (Eppendorf 5810R). The supernatant was transferred to a 96 well plate for LC-MS/MS analysis.
An LC-MS/MS method was devised for the test compounds and the control, using a AB Sciex API 4000 system coupled to a NEXAR™ UHPLC (Shimadzu) system. Analytes were separated on a Phenomenex Kinetex C18 column (50×2.1 mm, 5 μm) using a gradient that was appropriate for each compound, at a flow rate of 1 ml/minute, utilizing a mobile phase of 0.1% formic acid in MILLI-Q™ water (A) and 0.1% formic acid in acetonitrile (B). The MS instrument was operated in positive mode (ESI+)/negative (ESI−). The multiple reaction monitoring (MRM) transition for test and control compounds was used for the LC-MS/MS analysis. MRM transitions for control compound 7-ethoxycoumarinm were Quadropole 1: 191.0, Quadropole 3:163.0, dwell time: 75 msec, using curtain gas settings of 5 V, ion-spray voltage of 5500 V, temperature of 50° C. and gas settings for nebulizer and auxiliary set to 30 and 40 psi, respectively. The interface heater was kept on. Entrance potential and collision cell exit potential were varied to tune for a specific compound.
Using a suitable LC-MS/MS method, the percentage of drug remaining at 60 minutes ([…]) was assessed by comparing the average analyte to internal standard area ratio at 60 minutes to the average analyte to internal standard area ratio at 0 time control, as a percentage, from a 5 to 10 μL sample injection.
According to the above assay, the test compounds listed in Table 7 below were active in the Human liver microsome assay at 10 μM and the % of drug remaining after 60 minutes (PDR60), in the presence of NADPH, was assessed by LC-MS/MS. Average PDR60 for the standard compound, 7-ethoxycoumarin was <=65% in the presence of NADPH. Scoring for the test compounds, in the presence of NADPH, was as follows: “A” represents a PDR60 of 81 to 100%, “B” represents a PDR60 of 61 to 80%, “C” represents a PDR60 of 31 to 60% and “D” represents a PDR60 of 0 to 30%.

Structure (SMILES) | Average PDR60 (standard compound, human liver microsomes, 60 minutes) | Scoring: % of drug remaining after 60 minutes (PDR60)
CCOc1ccc2ccc(=O)oc2c1 [7-ethoxycoumarin, reference compound] | <= 65% | –
C[C@]1([C@H]2CC[C@]3(C)C(c4ccccc4)=CC[C@H]3[C@@H]2CN)Cc2cn[nH]c2C[C@@H]1CO [Ia-6, ((5R,6S)-5-((3aS,6S,7R,7aS)-7-(aminomethyl)-3a-methyl-3-phenyl-3a,4,5,6,7,7a-hexahydro-1H-inden-6-yl)-5-methyl-4,5,6,7-tetrahydro-1H-indazol-6-yl)methanol] | – | A (“A” represents a PDR60 of 81 to 100%)
C[C@]1([C@H]2CC[C@]3(C)c4[nH]ncc4C[C@H]3[C@@H]2CN)Cc2cn[nH]c2C[C@@H]1CO [Ia-7, ((5R,6S)-5-((4aS,5R,6S,8aS)-5-(aminomethyl)-8a-methyl-1,4,4a,5,6,7,8,8a-octahydroindeno[1,2-c]pyrazol-6-yl)-5-methyl-4,5,6,7-tetrahydro-1H-indazol-6-yl)methanol] | – | B (“B” represents a PDR60 of 61 to 80%)
C=C1CC[C@H]2[C@H](CN)[C@@H]([C@@]3(C)Cc4cn(-c5ccc(F)cc5)nc4C[C@@H]3CO)CC[C@]12C [Ia-13, ((5R,6S)-5-((3aS,4R,5S,7aS)-4-(aminomethyl)-7a-methyl-1-methyleneoctahydro-1H-inden-5-yl)-2-(4-fluorophenyl)-5-methyl-4,5,6,7-tetrahydro-2H-indazol-6-yl)methanol] | – | A (“A” represents a PDR60 of 81 to 100%)
C=C1CC[C@H]2[C@H](CN)[C@@H]([C@@]3(C)Cc4cnn(-c5ccc(OC)cc5)c4C[C@@H]3CO)CC[C@]12C [Ia-14, ((5R,6S)-5-((3aS,4R,5S,7aS)-4-(aminomethyl)-7a-methyl-1-methyleneoctahydro-1H-inden-5-yl)-1-(4-methoxyphenyl)-5-methyl-4,5,6,7-tetrahydro-1H-indazol-6-yl)methanol] | – | D (“D” represents a PDR60 of 0 to 30%)
C=C1CC[C@H]2[C@H](CN)[C@@H]([C@@]3(C)Cc4cn(Cc5ccc(OC)cc5)nc4C[C@@H]3CO)CC[C@]12C [Ia-17, ((5R,6S)-5-((3aS,4R,5S,7aS)-4-(aminomethyl)-7a-methyl-1-methyleneoctahydro-1H-inden-5-yl)-2-(4-methoxybenzyl)-5-methyl-4,5,6,7-tetrahydro-2H-indazol-6-yl)methanol] | – | C (“C” represents a PDR60 of 31 to 60%)
C=C1CC[C@H]2[C@H](CN)[C@@H]([C@@]3(C)Cc4cn(Cc5ccc(F)cc5)nc4C[C@@H]3CO)CC[C@]12C [Ia-19, ((5R,6S)-5-((3aS,4R,5S,7aS)-4-(aminomethyl)-7a-methyl-1-methyleneoctahydro-1H-inden-5-yl)-2-(4-fluorobenzyl)-5-methyl-4,5,6,7-tetrahydro-2H-indazol-6-yl)methanol] | – | B (“B” represents a PDR60 of 61 to 80%)
C=C1CC[C@H]2[C@H](CN)[C@@H]([C@@]3(C)Cc4cn(-c5ccc(F)c(F)c5)nc4C[C@@H]3CO)CC[C@]12C [Ia-23, ((5R,6S)-5-((3aS,4R,5S,7aS)-4-(aminomethyl)-7a-methyl-1-methyleneoctahydro-1H-inden-5-yl)-2-(3,4-difluorophenyl)-5-methyl-4,5,6,7-tetrahydro-2H-indazol-6-yl)methanol] | – | C (“C” represents a PDR60 of 31 to 60%)
C=C1CC[C@H]2[C@H](CN)[C@@H]([C@@]3(C)Cc4cn(-c5ccc(Oc6ccc(F)cc6)cc5)nc4C[C@@H]3CO)CC[C@]12C [Ia-25, ((5R,6S)-5-((3aS,4R,5S,7aS)-4-(aminomethyl)-7a-methyl-1-methyleneoctahydro-1H-inden-5-yl)-2-(4-(4-fluorophenoxy)phenyl)-5-methyl-4,5,6,7-tetrahydro-2H-indazol-6-yl)methanol] | – | B (“B” represents a PDR60 of 61 to 80%)
C=C1CC[C@H]2[C@H](CN)[C@@H]([C@@]3(C)Cc4cnn(-c5ccc(F)cn5)c4C[C@@H]3CO)CC[C@]12C [Ia-30, ((5R,6S)-5-((3aS,4R,5S,7aS)-4-(aminomethyl)-7a-methyl-1-methyleneoctahydro-1H-inden-5-yl)-1-(5-fluoropyridin-2-yl)-5-methyl-4,5,6,7-tetrahydro-1H-indazol-6-yl)methanol] | – | D (“D” represents a PDR60 of 0 to 30%)
C=C1CC[C@H]2[C@H](CN)[C@@H]([C@@]3(C)Cc4cnn(-c5ccccc5F)c4C[C@@H]3CO)CC[C@]12C [Ia-32, ((5R,6S)-5-((3aS,4R,5S,7aS)-4-(aminomethyl)-7a-methyl-1-methyleneoctahydro-1H-inden-5-yl)-1-(2-fluorophenyl)-5-methyl-4,5,6,7-tetrahydro-1H-indazol-6-yl)methanol] | – | D (“D” represents a PDR60 of 0 to 30%)
C=C1CC[C@H]2[C@H](CN)[C@@H]([C@@]3(C)Cc4cnn(-c5ccc(F)cc5F)c4C[C@@H]3CO)CC[C@]12C [Ia-34, ((5R,6S)-5-((3aS,4R,5S,7aS)-4-(aminomethyl)-7a-methyl-1-methyleneoctahydro-1H-inden-5-yl)-1-(2,4-difluorophenyl)-5-methyl-4,5,6,7-tetrahydro-1H-indazol-6-yl)methanol] | – | D (“D” represents a PDR60 of 0 to 30%)
C=C1CC[C@H]2[C@H](CN)[C@@H]([C@@]3(C)Cc4cn(C5CCC(F)(F)CC5)nc4C[C@@H]3CO)CC[C@]12C [Ia-39, ((5R,6S)-5-((3aS,4R,5S,7aS)-4-(aminomethyl)-7a-methyl-1-methyleneoctahydro-1H-inden-5-yl)-2-(4,4-difluorocyclohexyl)-5-methyl-4,5,6,7-tetrahydro-2H-indazol-6-yl)methanol] | – | A (“A” represents a PDR60 of 81 to 100%)
C=C1CC[C@H]2[C@H](CN)[C@@H]([C@@]3(C)Cc4cnn(-c5cccc(F)c5)c4C[C@@H]3CO)CC[C@]12C [Ia-40, ((5R,6S)-5-((3aS,4R,5S,7aS)-4-(aminomethyl)-7a-methyl-1-methyleneoctahydro-1H-inden-5-yl)-1-(3-fluorophenyl)-5-methyl-4,5,6,7-tetrahydro-1H-indazol-6-yl)methanol] | – | D (“D” represents a PDR60 of 0 to 30%)
COc1ccc(-n2ncc3c2C[C@H](CO)[C@@](C)([C@H]2CC[C@]4(C)[C@@H](C)CC[C@H]4[C@@H]2CN)C3)cc1 [Ia-49, ((5R,6S)-5-((1S,3aS,4S,5S,7aR)-4-(aminomethyl)-1,7a-dimethyloctahydro-1H-inden-5-yl)-1-(4-methoxyphenyl)-5-methyl-4,5,6,7-tetrahydro-1H-indazol-6-yl)methanol] | – | D (“D” represents a PDR60 of 0 to 30%)
